The assay addresses h-Cereblon_DDB1 (hCereblon(M1-L442)_hDDB1(M1-H1140)) (Homo sapiens (Human), UniProt Q96SW2). The assay can be described thus: Fluorescence direct binding (tryptophan fluorescence titration). The note with it: 20° C., excitation 280 nm, emission 340 nm, 1:1 protein-ligand complex; read-out: Fluorescence h-Cereblon_DDB1 Mean Kd_EQ.
Sequence of h-Cereblon_DDB1 (hCereblon(M1-L442)_hDDB1(M1-H1140)) (Q96SW2 whole entry): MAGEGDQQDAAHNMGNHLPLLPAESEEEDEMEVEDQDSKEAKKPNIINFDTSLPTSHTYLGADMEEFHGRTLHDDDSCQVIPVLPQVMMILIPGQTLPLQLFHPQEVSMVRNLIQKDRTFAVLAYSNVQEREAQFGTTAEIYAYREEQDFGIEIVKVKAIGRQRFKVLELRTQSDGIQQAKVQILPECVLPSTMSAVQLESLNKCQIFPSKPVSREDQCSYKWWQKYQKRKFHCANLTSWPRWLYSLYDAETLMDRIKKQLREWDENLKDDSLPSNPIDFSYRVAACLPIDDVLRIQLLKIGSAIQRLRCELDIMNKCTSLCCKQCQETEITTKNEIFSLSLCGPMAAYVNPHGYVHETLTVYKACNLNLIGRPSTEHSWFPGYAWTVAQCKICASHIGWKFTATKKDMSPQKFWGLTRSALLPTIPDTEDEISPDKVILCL
Sequence of h-Cereblon_DDB1 (hCereblon(M1-L442)_hDDB1(M1-H1140)) (Q16531 whole entry partner): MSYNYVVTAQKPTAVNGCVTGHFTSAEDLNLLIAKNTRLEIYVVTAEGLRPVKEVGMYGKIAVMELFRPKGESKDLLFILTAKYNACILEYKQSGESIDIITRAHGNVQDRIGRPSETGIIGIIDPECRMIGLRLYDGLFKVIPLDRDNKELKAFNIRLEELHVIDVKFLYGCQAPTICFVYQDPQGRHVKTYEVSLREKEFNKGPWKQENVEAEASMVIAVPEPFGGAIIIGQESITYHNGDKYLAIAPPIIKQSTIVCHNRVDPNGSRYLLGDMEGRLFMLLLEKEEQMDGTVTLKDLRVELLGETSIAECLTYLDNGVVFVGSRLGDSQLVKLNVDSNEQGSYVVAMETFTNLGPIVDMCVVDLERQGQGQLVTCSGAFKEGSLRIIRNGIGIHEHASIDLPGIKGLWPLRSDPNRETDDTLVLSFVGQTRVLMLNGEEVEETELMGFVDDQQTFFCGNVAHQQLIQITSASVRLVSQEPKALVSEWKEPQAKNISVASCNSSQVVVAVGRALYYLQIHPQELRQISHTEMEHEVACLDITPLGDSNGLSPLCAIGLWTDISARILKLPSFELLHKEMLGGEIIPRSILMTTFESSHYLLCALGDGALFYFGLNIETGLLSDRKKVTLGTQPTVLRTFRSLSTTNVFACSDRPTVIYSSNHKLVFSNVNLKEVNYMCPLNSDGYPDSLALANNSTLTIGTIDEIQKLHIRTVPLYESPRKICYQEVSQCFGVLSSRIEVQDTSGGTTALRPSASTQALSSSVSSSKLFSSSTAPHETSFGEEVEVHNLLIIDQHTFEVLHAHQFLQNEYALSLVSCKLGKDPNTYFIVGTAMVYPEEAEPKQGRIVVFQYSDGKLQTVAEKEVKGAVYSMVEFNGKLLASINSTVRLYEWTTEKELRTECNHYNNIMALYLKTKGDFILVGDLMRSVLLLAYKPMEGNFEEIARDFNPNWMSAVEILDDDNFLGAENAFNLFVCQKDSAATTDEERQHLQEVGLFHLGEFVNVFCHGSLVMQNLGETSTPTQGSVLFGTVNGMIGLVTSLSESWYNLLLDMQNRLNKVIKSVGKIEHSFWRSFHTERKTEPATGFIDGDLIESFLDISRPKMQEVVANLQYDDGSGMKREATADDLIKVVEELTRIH
Procedure: Determination of the affinities of compounds to protein containing one or more tryptophan is measurable by monitoring the fluorescence emission in direct mode. The measurements depending on the protein available amounts are performed either manually in a cuvette on ISS-PC1 photon counting spectrofluorometer or automatically in well plates on a fluorescence plate reader device. Fluorescence titrations are performed at 20° C. in the chosen binding assay buffer by using a defined constant protein concentration against ligand concentration variations. Small aliquots of known ligand concentration solubilized in DMSO were added and the fluorescence, excited at 280 nm, was recorded at 340 nm. The fluorescence intensity was corrected for protein dilution and for the filter effect (Birdsall et al.^37). The corrected fluorescence intensity was plotted against the ligand concentration and fitted using a four-parameter sigmoidal function, from which the equilibrium dissociation constant Kd was computed using the law of mass action assuming a 1:1 protein-ligand complex (Eftink, 1997^38).
Process • 1) Optimization of measurement parameters to minimize protein consumption and to minimize the dilution effect and the DMSO content • 2) Titration measurements of the protein against ligand by at least 12 titration steps to obtain a good s-curve fit • 3) Repeat the same titration measurements with the ligand alone to enable correction • 4) Check the stability of the protein once by titration against DMSO alone • 5) Determination of the molar extinction coefficients of the ligand at 280 and 340 nm with help of a UV-spectrophotometer • 6) Use Excel template for the correction of the measured raw data • 7) Use GraphPad Prism software for the quadratic binding fit and the Kd evaluation.
In the case of `O=C1CCc2ccc(-n3ccnc3)cc2N1` [Example 53, 7-(1H-Imidazol-1-yl)-3,4-dihydroquinolin-2(1H)-one], the Kd was 16 nM.

On to `O=C1CCc2cc(C(=O)N3CCc4ccccc43)cnc2N1` [Example 58, 6-(Indoline-1-carbonyl)-3,4-dihydro-1H-1,8-naphthyridin-2-one], for which the Kd is 62 nM.

As for `O=C1CCc2cc(C(=O)N3CCc4cccnc43)ccc2N1` [Example 55, 6-(2,3-Dihydropyrrolo[2,3-b]pyridine-1-carbonyl)-3,4-dihydro-1H-quinolin-2-one], the Kd is 23 nM.

With `O=C1CCc2cc(NC(=O)C3CCCc4ccccc43)cnc2N1` (racemic) [Example 21, (RS)—N-(7-Oxo-5,6,7,8-tetrahydro-1,8-naphthyridin-3-yl)-1,2,3,4-tetrahydronaphthalene-1-carboxamide], the Kd was determined as 4 nM.

With `CNC(=O)c1ccc2c(c1)nc(-c1cc(-c3cncn3C)nc3ccccc13)n2-c1ccc2c(c1)CCC(=O)N2` [Example 2, N-Methyl-2-[2-(3-methylimidazol-4-yl)-4-quinolyl]-1-(2-oxo-3,4-dihydro-1H-quinolin-6-yl)benzimidazole-5-carboxamide], the Kd is 40 nM.

On to `CNC(=O)c1ccc2c(c1)nc(-c1cc(OC)ccc1C)n2-c1ccc2c(c1)CCC(=O)N2` [Example 33, 2-(5-Methoxy-2-methyl-phenyl)-N-methyl-1-(2-oxo-3,4-dihydro-1H-quinolin-6-yl)benzimidazole-5-carboxamide], for which the Kd worked out at 45 nM.

For `CNC(=O)c1ccc2c(c1)nc(-c1cc(OC)ncc1F)n2-c1ccc2c(c1)CCC(=O)N2` [Example 44, 2-(5-Fluoro-2-methoxy-4-pyridyl)-N-methyl-1-(2-oxo-3,4-dihydro-1H-quinolin-6-yl)benzimidazole-5-carboxamide], the Kd came out at 10 nM.

Consider `COC(=O)c1ccc2c(c1)nc(-c1ccnc(OC)c1)n2-c1ccc2c(c1)CCC(=O)N2` [Example 22, Methyl 2-(2-methoxypyridin-4-yl)-1-(2-oxo-1,2,3,4-tetrahydroquinolin-6-yl)-1H-benzo[d]imidazole-5-carboxylate], for which the Kd was found to be 4 nM.

Turning to `CNC(=O)c1ccc2c(c1)nc(-c1cc(OC)ccc1F)n2-c1ccc2c(c1)CCC(=O)N2` [Example 35, 2-(2-Fluoro-5-methoxy-phenyl)-N-methyl-1-(2-oxo-3,4-dihydro-1H-quinolin-6-yl)benzimidazole-5-carboxamide], the Kd was 14 nM.

`O=C1CCc2cc(-n3ccnc3)cnc2N1` [Example 9, 6-(1H-Imidazol-1-yl)-3,4-dihydro-1,8-naphthyridin-2(1H)-one]: the Kd was 16 nM.

As for `CNC(=O)c1ccc2c(c1)nc(-c1cccc(OC)n1)n2-c1ccc2c(c1)CCC(=O)N2` [Example 23, 2-(6-Methoxypyridin-2-yl)-N-methyl-1-(2-oxo-1,2,3,4-tetrahydroquinolin-6-yl)-1H-benzo[d]imidazole-5-carboxamide], the Kd is 15 nM.

For `CNC(=O)c1ccc2c(c1)nc(C(C)C)n2-c1ccc2c(c1)CNC(=O)N2` [Example 62, 2-Isopropyl-N-methyl-1-(2-oxo-1,2,3,4-tetrahydroquinazolin-6-yl)-1H-benzo[d]imidazole-5-carboxamide], the Kd was determined as 120 nM.

Turning to `CNC(=O)c1ccc2c(c1)nc(-c1ccnc(OC)c1)n2-c1cnc2c(c1)CCC(=O)N2` [Example 29, 2-(2-Methoxy-4-pyridyl)-N-methyl-1-(7-oxo-6,8-dihydro-5H-1,8-naphthyridin-3-yl)benzimidazole-5-carboxamide], the Kd amounted to 35 nM.

Consider `Cc1sc2c(c1C)C(c1ccc(Cl)cc1)=N[C@@H](CC(=O)NCCOCCOCCNC(=O)c1ccc3c(c1)nc(-c1cc(-c4cncn4C)nc4ccccc14)n3-c1ccc3c(c1)CCC(=O)N3)c1nnc(C)n1-2` [Example C, N-(2-(2-(2-(2-((6S)-4-(4-Chlorophenyl)-2,3,9-trimethyl-6H-thieno[3,2-f][1,2,4]triazolo[4,3-a][1,4]diazepin-6-yl)acetamido)ethoxy)ethoxy)ethyl)-2-(2-(1-methyl-1H-imidazol-5-yl)quinolin-4-yl)-1-(2-oxo-1,2,3,4-tetrahydroquinolin-6-yl)-1H-benzo[d]imidazole-5-carboxamide], for which the Kd was 524 nM.

For `COC(=O)c1ccc(Nc2ccc3c(c2)CCC(=O)N3)cc1` [Example 19, Methyl 4-((2-oxo-1,2,3,4-tetrahydroquinolin-6-yl)amino)benzoate], the Kd was 30 nM.

For the molecule `Cc1sc2c(c1C)C(c1ccc(Cl)cc1)=N[C@@H](CC(=O)NCCCCCCCCCCNC(=O)c1ccc3c(c1)nc(-c1cc(-c4cncn4C)nc4ccccc14)n3-c1ccc3c(c1)CCC(=O)N3)c1nnc(C)n1-2` [Example A, N-(10-(2-((6S)-4-(4-Chlorophenyl)-2,3,9-trimethyl-6H-thieno[3,2-f][1,2,4]triazolo[4,3-a][1,4]diazepin-6-yl)acetamido)decyl)-2-(2-(1-methyl-1H-imidazol-5-yl)quinolin-4-yl)-1-(2-oxo-1,2,3,4-tetrahydroquinolin-6-yl)-1H-benzo[d]imidazole-5-carboxamide], the Kd stood at 338 nM.

As for `Cc1sc2c(c1C)C(c1ccc(Cl)cc1)=N[C@@H](CC(=O)NCCCCCNC(=O)c1ccc3c(c1)nc(-c1cc(-c4cncn4C)nc4ccccc14)n3-c1ccc3c(c1)CCC(=O)N3)c1nnc(C)n1-2` [Example B, N-(5-(2-((6S)-4-(4-Chlorophenyl)-2,3,9-trimethyl-6H-thieno[3,2-f][1,2,4]triazolo[4,3-a][1,4]diazepin-6-yl)acetamido)pentyl)-2-(2-(1-methyl-1H-imidazol-5-yl)quinolin-4-yl)-1-(2-oxo-1,2,3,4-tetrahydroquinolin-6-yl)-1H-benzo[d]imidazole-5-carboxamide], the Kd turned out to be 258 nM.

On to `O=C1CCc2cc(C(=O)N3CCCc4ccccc43)cnc2N1` [Example 60, 6-(3,4-Dihydro-2H-quinoline-1-carbonyl)-3,4-dihydro-1H-1,8-naphthyridin-2-one], for which the Kd was 1 nM.

With `CC(C)c1nc2ccccc2n1-c1ccc2c(c1)CNC(=O)N2` [Example 61, 6-(2-Isopropyl-1H-benzo[d]imidazol-1-yl)-3,4-dihydroquinazolin-2(1H)-one], the Kd is 171 nM.

`CC(=O)N1CCC(NC(=O)c2ccc3c(c2)CCC(=O)N3)CC1` [Example 57, N-(1-Acetyl-4-piperidyl)-2-oxo-3,4-dihydro-1H-quinoline-6-carboxamide]: the Kd turned out to be 41 nM.

In the case of `O=C1CCc2cc(C(=O)N3CCc4cccnc43)cnc2N1` [Example 59, 6-(2,3-Dihydropyrrolo[2,3-b]pyridine-1-carbonyl)-3,4-dihydro-1H-1,8-naphthyridin-2-one], the Kd worked out at 3 nM.

Take `CNC(=O)c1ccc2c(c1)nc(CO)n2-c1ccc2c(c1)CCC(=O)N2` [Example 15, 2-(Hydroxymethyl)-N-methyl-1-(2-oxo-1,2,3,4-tetrahydroquinolin-6-yl)-1H-benzo[d]imidazole-5-carboxamide]: the Kd was 11 nM.

On to `CNC(=O)c1ccc2c(c1)nc(-c1ccc(OC)nc1)n2-c1ccc2c(c1)CCC(=O)N2` [Example 24, 2-(6-Methoxypyridin-3-yl)-N-methyl-1-(2-oxo-1,2,3,4-tetrahydroquinolin-6-yl)-1H-benzo[d]imidazole-5-carboxamide], for which the Kd came out at 12 nM.

For the molecule `CNC(=O)c1ccc2c(c1)nc(Cc1ccc(C(F)(F)F)cc1OC)n2-c1ccc2c(c1)CCC(=O)N2` [Example 47, 2-[[2-Methoxy-4-(trifluoromethyl)phenyl]methyl]-N-methyl-1-(2-oxo-3,4-dihydro-1H-quinolin-6-yl)benzimidazole-5-carboxamide], the Kd came to 17 nM.

For the molecule `Cn1cncc1-c1cc(C(=O)Nc2ccc3c(c2)CCC(=O)N3)c2ccccc2n1` [Example 5], the Kd was 677 nM.
